The NIST ThermoML archive (doi:10.1016/j.jct.2012.10.018)

Experiment: mn = molality of the nth substance listed, in mol/kg
Details: 101 kPa, Liquid; for speed of sound: Sing-around technique in a fixed-path interferometer; for mass density: Vibrating tube method

NCC(=O)NCC(=O)O [glycylglycine] + O
Details | mass density, 293.15 K [kg/m3] | mass density, 298.15 K [kg/m3] | mass density, 303.15 K [kg/m3] | speed of sound, 293.15 K [m/s] | speed of sound, 298.15 K [m/s] | speed of sound, 303.15 K [m/s]
m1 = 0.0467 | 1000.84 | 999.656 | 998.24 | 1486.4 | 1500.5 | 1512.8
m1 = 0.103 | 1003.95 | 1002.74 | 1001.3 | 1491.2 | 1505.2 | 1517.2
m1 = 0.1479 | 1006.4 | 1005.17 | 1003.71 | 1495 | 1508.8 | 1520.7
m1 = 0.1998 | 1009.2 | 1007.93 | 1006.45 | 1499.3 | 1513 | 1524.8
m1 = 0.251 | 1011.92 | 1010.63 | 1009.13 | 1503.5 | 1517 | 1528.7
m1 = 0.2973 | 1014.35 | 1013.04 | 1011.52 | 1507.3 | 1520.6 | 1532.2
m1 = 0.347 | 1016.93 | 1015.59 | 1014.07 | 1511.3 | 1524.4 | 1536
m1 = 0.402 | 1019.73 | 1018.38 | 1016.83 | 1515.7 | 1528.7 | 1540.2
m1 = 0.4499 | 1022.14 | 1020.78 | 1019.21 | 1519.3 | 1532.3 | 1543.6

NCC(=O)NCC(=O)NCC(=O)O [glycylglycylglycine] + O
Details | mass density, 293.15 K [kg/m3] | mass density, 298.15 K [kg/m3] | mass density, 303.15 K [kg/m3] | mass density, 308.15 K [kg/m3] | speed of sound, 293.15 K [m/s] | speed of sound, 298.15 K [m/s] | speed of sound, 303.15 K [m/s] | speed of sound, 308.15 K [m/s]
m1 = 0.025 | 1000.18 | 999.002 | 997.591 | 995.964 | 1485.2 | 1499.3 | 1511.6 | 1522.2
m1 = 0.05 | 1002.1 | 1000.91 | 999.479 | 997.839 | 1487.9 | 1501.9 | 1514.1 | 1524.6
m1 = 0.075 | 1004 | 1002.79 | 1001.35 | 999.696 | 1490.5 | 1504.4 | 1516.5 | 1527
m1 = 0.0999 | 1005.88 | 1004.66 | 1003.2 | 1001.54 | 1493.1 | 1507 | 1518.9 | 1529.3
m1 = 0.1248 | 1007.76 | 1006.52 | 1005.05 | 1003.37 | 1495.6 | 1509.5 | 1521.3 | 1531.6
m1 = 0.15 | 1009.64 | 1008.38 | 1006.9 | 1005.21 | 1498.1 | 1511.8 | 1523.7 | 1533.9
m1 = 0.175 | 1011.5 | 1010.22 | 1008.72 | 1007.02 | 1500.6 | 1514.2 | 1526 | 1536.1
m1 = 0.1926 | 1012.79 | 1011.5 | 1010 | 1008.29 | 1502.3 | 1515.9 | 1527.7 | 1537.7
m1 = 0.2706 | 1018.47 | 1017.13 | 1015.58 | 1013.84 | 1509.7 | 1522.9 | 1534.4 | 1544.3

O [water] + NCC(=O)NCC(=O)NCC(=O)O
Details | mass density [kg/m3]
308.15 K, m2 = 0 | 994.08
